Reference: US20210052480A1, “USE OF CYCLIC PEPTIDES IN COSMETIC” (Sederma, priority 2018, published 2021)

How the values were obtained:
Format in all cases: cell-based
HNFs [1] = assay: Comparative elastin synthesis by fibroblasts, ELISA; conditions: 12.5 ppm; 3 days
HNFs [2] = assay: Comparative collagen I synthesis by fibroblasts, ELISA; conditions: 3 days
Method: HNFs were grown in 24-well plates for 24 hours. The cells were placed in contact or not with test products at different concentrations for 3 days. The collagen synthesis was evaluated by ELISA assay on the culture supernatant and the result was reduced to the number of cells.

FHNs = assay: Comparative collagen I synthesis by fibroblasts, IMF; conditions: 6 days
Method: FHNs were grown in 24-well plates for 24 hours. The cells were placed in contact with test products (or their excipient) at different concentrations for 6 days. The collagen I produced by the cells was then quantified by immunofluorescence on the fixed mats, and the result was then reduced to the number of cells.

| Substance | Production of elastin (ELISA method), comparison (HNFs [1]) | Collagen I production (ELISA method), comparison (HNFs [2]; 10 ppm) | Collagen I production (ELISA method), comparison (HNFs [2]; 15 ppm) | Production of collagen I (IMF method), comparison (FHNs; 5 ppm) | Production of collagen I (IMF method), comparison (FHNs; 10 ppm) |
| --- | --- | --- | --- | --- | --- |
| Cyclo(-Met-Leu-Ile-Pro-Pro-Phe-Phe-Val-Ile) (MLIPPFFVI; cyclic; Synthetic peptide or Linum usitatissimum; (1)..(1) M can be oxidized into sulfoxide or sulfone; (1)..(9) Cyclic peptide) [Linusorb B2] | +43%; p <0.05 | +36.2%; p <0.01 | +39.2%; p <0.01 | +34.2; dns | +41.8; p <0.01 |
| cyclo(ILVPPFFLI) [Linusorb B3] | +58%; p <0.05 | −0.4%; nds | +62.6%; p <0.01 | +111.1; p <0.01 | +121.7; p <0.01 |
